Data: US8633251B2, “Derivatives of aminoalkanols, method of obtaining of aminoalkanols and their use” (Uniwersytet Jagiellonski, priority 2008, dated 2014)
Counter-ions that a name gives are not always drawn. Like-named read-outs stand apart in the source and are kept apart here. One block for each compound: values may come before it.

What was measured:
[1] = test system: maximal electroshock seizures; assay: Maximum Electroshock Seizure (MES) test, mice; type: in vivo; settings: mice; for responders at 100 mg/kg: read-out: MES, No. of protected animals/No. of used animals (converted)
Summary of the method: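 Mice received compound in methylcellulose i.p. or p.o. at 30, 100 and 300 mg/kg, with some tests at 10 and 3 mg/kg. At 0.5 or 4 h, after tetracaine eye-drops, current was delivered through corneal electrodes (60 Hz, 0.2 s, 50 mA). Groups were one mouse at 30 and 300 mg/kg and three at 100 mg/kg.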

neurotoxicity (rotarod) = assay: Neurotoxicity test (TOX), rotarod, mice; type: in vivo
[2] = test system: pentylenetetrazol-induced seizures; assay: Subcutaneous Metrazol Test (ScMet), mice; type: in vivo
Procedure: In order to define anticonvulsant activity, screening tests were performed, using animal models of seizures. […] The tests were based on administration of a compound to an animal and after certain time inducing state similar to epilepsy attack in human. Each substance (after dissolving in methylcellulose) was normally tested in doses 30, 100, and 300 mg/kg body weight (b.w.) (mice) or in 30 and 50 mg/kg b.w. (rats) in two possible routes of administration: intraperitoneal (i.p.) or oral (p.o.). Appropriate tests were performed 0.5 and 4 h after administration of the compound. […] (mice) the tests were also performed in doses 10 and 3 mg/kg b.w.
Subcutaneous Metrazol Test (ScMet) is a chemical test, where compounds are tested for activity in absence seizures (petit mal epilepsy). Pentetrazol (metrazol) is considered to block chloride channel in the GABAA receptor complex, therefore at a certain dose in animals it causes myoclonic jerks, next—clonic seizures, and then tonic seizures. The procedure consists in administration of a tested compound and after 0.5 or 4 h subcutaneous administration of pentylenetetrazol in the dose of 85 mg/kg b.w. (mice) or 70 mg/kg b.w. (rats) in a 0.85% solution in 0.9% NaCl. […] Normally the test is performed in single animals.

[3] = mice, dose 100 mg/kg b.w., time 0.5 h
[4] = mice, dose 100 mg/kg b.w., time 4 h
[5] = mice, dose 300 mg/kg b.w., time 0.5 h
[6] = Mus musculus, dose 30 mg/kg b.w., time 0.5 h, read-out: MES, No. of protected animals/No. of used animals
[7] = Mus musculus, dose 100 mg/kg b.w., 0.5 h
[8] = mice, dose 100 mg/kg b.w., 0.5 h
[9] = mice, dose 300 mg/kg b.w., 0.5 h
[10] = dose 100 mg/kg b.w., time 0.5 h

Compound: Cc1cccc(C)c1OCCNC(C)(C)CCO (as salt: hydrochloride) [Compound 15, 3N-[(2,6-dimethylphenoxy)ethyl]amino-3-methyl-1-butanol hydrochloride]
melting point: 170 to 172 °C

Compound: Cc1cccc(C)c1OCCN[C@H](CO)C(C)C (as salt: hydrochloride) [Compound 16, L-2N-[(2,6-dimethylphenoxy)ethyl]amino-3-methyl-1-butanol hydrochloride]
melting point: 162 to 164 °C

Compound: Cc1cccc(C)c1OCCNCCCCCO (as salt: hydrochloride) [Compound 17, 5N-[(2,6-dimethylphenoxy)ethyl]amino-1-pentanol hydrochloride]
melting point: 138 to 140 °C

Compound: Cc1cccc(C)c1OCCCN[C@H](C)CO (as salt: hydrochloride) [Compound 52, R-(−)-2N-[(2,6-dimethylphenoxy)propyl]amino-1-propanol hydrochloride]
melting point: 119 to 120 °C

Compound: CCC(O)CNCCCOc1c(C)cccc1C (racemic) [Compound 54, R,S-1N-[(2,6-dimethylphenoxy)propyl]amino-2-butanol]
MES, No. of protected animals/No. of used animals ([1]; dose 100 mg/kg b.w., 0.5 h): 2/2 | TOX, No. of animals exhibiting motor impairment/no. of used animals (neurotoxicity (rotarod); mouse, in vivo, 30 mg/kg): 1/4 | TOX, No. of animals exhibiting motor impairment/no. of used animals (neurotoxicity (rotarod); mouse, in vivo, 300 mg/kg): 4/4 | ScMet, No. of protected animals/No. of used animals ([2]; dose 30 mg/kg b.w., 0.5 h): 1/5 | ScMet, No. of protected animals/No. of used animals ([2]; dose 30 mg/kg b.w., 4 h): 1/1

melting point: 182 to 184 °C
Compound: CCC(NC(=O)COc1c(C)cccc1C)C(N)=O (racemic) [Compound 66, D,L-2N-[(2,6-dimethylphenoxy)acetyl]aminobutyramide]

Compound: Cc1cccc(OCCNCC(O)c2ccccc2)c1C (stereo not shown) [Compound 4, R,S-2N-[(2,3-dimethylphenoxy)ethyl]amino-1-phenylethanol]
TOX, No. of animals exhibiting motor impairment/no. of used animals (neurotoxicity (rotarod); [3]): 4/8 | TOX, No. of animals exhibiting motor impairment/no. of used animals (neurotoxicity (rotarod); [4]): 1/4 | TOX, No. of animals exhibiting motor impairment/no. of used animals (neurotoxicity (rotarod); [5]): 3/4 | ScMet, No. of protected animals/No. of used animals ([2]; dose 30 mg/kg b.w., time 0.5 h): 1/5

Compound: Cc1cccc(C)c1OCCNC[C@@H](C)O [Compound 10, R-(−)-1N-[(2,6-dimethylphenoxy)ethyl]amino-2-propanol]
responders at 30 mg/kg [1, 6]: 100% | responders at 100 mg/kg ([1]; Mus musculus, dose 100 mg/kg b.w., time 4 h): 100% | TOX, No. of animals exhibiting motor impairment/no. of used animals (neurotoxicity (rotarod); mice, dose 30 mg/kg b.w., time 0.5 h): 1/4 | TOX, No. of animals exhibiting motor impairment/no. of used animals (neurotoxicity (rotarod); [3]): 8/8 | TOX, No. of animals exhibiting motor impairment/no. of used animals (neurotoxicity (rotarod); [4]): 1/3 | TOX, No. of animals exhibiting motor impairment/no. of used animals (neurotoxicity (rotarod); [5]): 4/4 | melting point: 76 to 77 °C

Compound: Cc1cccc(C)c1OCCNC[C@H](O)c1ccccc1 [Compound 20, R-(−)-2N-[(2,6-dimethylphenoxy)ethyl]amino-1-phenylethanol]
responders at 30 mg/kg [1, 6]: 100% | TOX, No. of animals exhibiting motor impairment/no. of used animals (neurotoxicity (rotarod); [3]): 8/8 | TOX, No. of animals exhibiting motor impairment/no. of used animals (neurotoxicity (rotarod); [5]): 4/4 | melting point: 78 to 80 °C

Compound: Cc1cccc(OCCCNC(C)(C)CO)c1C [Compound 47, 2N-[(2,3-dimethylphenoxy)propyl]amino-2-methyl-1-propanol]
responders at 100 mg/kg ([1]; Mus musculus, dose 100 mg/kg b.w., time 0.5 h): 100% | TOX, No. of animals exhibiting motor impairment/no. of used animals (neurotoxicity (rotarod); [3]): 8/8 | TOX, No. of animals exhibiting motor impairment/no. of used animals (neurotoxicity (rotarod); [4]): 4/4 | TOX, No. of animals exhibiting motor impairment/no. of used animals (neurotoxicity (rotarod); [5]): 4/4 | melting point: 128 to 130 °C

Compound: Cc1cccc(C)c1OCCCNC(C)(C)CO [Compound 53, 2N-[(2,6-dimethylphenoxy)propyl]amino-2-methyl-1-propanol]
responders at 100 mg/kg [1, 7]: 100% | TOX, No. of animals exhibiting motor impairment/no. of used animals (neurotoxicity (rotarod); mice, dose 30 mg/kg b.w., 0.5 h): 1/4 | TOX, No. of animals exhibiting motor impairment/no. of used animals (neurotoxicity (rotarod); [8]): 8/8 | TOX, No. of animals exhibiting motor impairment/no. of used animals (neurotoxicity (rotarod); [9]): 4/4 | melting point: 73 to 75 °C

Compound: Cc1cccc(C)c1OCC(=O)N(C)CCO [Compound 59, R,S-2N-[(2,6-dimethylphenoxy)acetyl]-2N-methylamino-1-ethanol]
MES, No. of protected animals/No. of used animals ([1]; dose 300 mg/kg b.w., 0.5 h): 1/1 | ScMet, No. of protected animals/No. of used animals ([2]; dose 300 mg/kg b.w., 0.5 h): 1/1

Compound: Cc1cccc(C)c1OCC(=O)N[C@H]1CC[C@H](O)CC1 [Compound 64, trans-4N-[(2,6-dimethylphenoxy)acetyl]amino-1-cyclohexanol]
responders at 100 mg/kg [1, 7]: 100% | responders at 300 mg/kg ([1]; Mus musculus, dose 300 mg/kg b.w., 0.5 h, read-out: MES, No. of protected animals/No. of used animals): 100% | TOX, No. of animals exhibiting motor impairment/no. of used animals (neurotoxicity (rotarod); [8]): 7/8 | TOX, No. of animals exhibiting motor impairment/no. of used animals (neurotoxicity (rotarod); [9]): 4/4 | melting point: 161 to 162 °C | responders at 300 mg/kg ([2]; Mus musculus, sc, dose 300 mg/kg b.w., 0.5 h, read-out: ScMet, No. of protected animals/No. of used animals): 100%

Compound: Cc1cccc(Cl)c1OCC(=O)NCC(C)O (stereo not shown) [Compound 68, R,S-1N-[(2-chlor-6-methylphenoxy)acetyl]amino-2-propanol]
MES, No. of protected animals/No. of used animals ([1]; dose 300 mg/kg b.w., 0.5 h): 1/1 | ED50 (MES, mice, i.p.) ([1]; i.p., time not given): 97.93 mg/kg b.w. | TOX, No. of animals exhibiting motor impairment/no. of used animals (neurotoxicity (rotarod); [9]): 4/4 | ScMet, No. of protected animals/No. of used animals ([2]; dose 300 mg/kg b.w., 0.5 h): 1/1

Compound: Cc1cccc(Cl)c1OCC(=O)N[C@@H](C)CO [Compound 71, S-(+)-2N-[(2-chlor-6-methylphenoxy)acetyl]amino-1-propanol]
MES, No. of protected animals/No. of used animals ([1]; dose 300 mg/kg b.w., 0.5 h): 1/1 | TOX, No. of animals exhibiting motor impairment/no. of used animals (neurotoxicity (rotarod); [9]): 4/4

Compound: CCC(O)CNC(=O)COc1c(C)cccc1Cl (stereo not shown) [Compound 72, R,S-1N-[(2-chlor-6-methylphenoxy)acetyl]amino-2-butanol]
MES, No. of protected animals/No. of used animals ([1]; dose 300 mg/kg b.w., 0.5 h): 1/1 | TOX, No. of animals exhibiting motor impairment/no. of used animals (neurotoxicity (rotarod); [9]): 4/4 | ScMet, No. of protected animals/No. of used animals ([2]; dose 300 mg/kg b.w., 0.5 h): 1/1

Compound: CCC(CO)NC(=O)COc1c(C)cccc1Cl (stereo not shown) [Compound 73, R,S-2N-[(2-chlor-6-methylphenoxy)acetyl]amino-1-butanol]
MES, No. of protected animals/No. of used animals ([1]; dose 300 mg/kg b.w., 0.5 h): 1/1 | MES, No. of protected animals/No. of used animals ([1]; dose 300 mg/kg b.w., 4 h): 1/1 | TOX, No. of animals exhibiting motor impairment/no. of used animals (neurotoxicity (rotarod); [9]): 4/4 | ScMet, No. of protected animals/No. of used animals ([2]; dose 100 mg/kg b.w., 0.5 h): 3/5 | ScMet, No. of protected animals/No. of used animals ([2]; dose 300 mg/kg b.w., 0.5 h): 1/1

Compound: Cc1cc(Cl)ccc1OCC(=O)NCC(C)O (stereo not shown) [Compound 80, R,S-1N-[(4-chlor-2-methylphenoxy)acetyl]amino-2-propanol]
MES, No. of protected animals/No. of used animals ([1]; dose 300 mg/kg b.w., 0.5 h): 1/1 | TOX, No. of animals exhibiting motor impairment/no. of used animals (neurotoxicity (rotarod); [9]): 4/4 | ScMet, No. of protected animals/No. of used animals ([2]; dose 300 mg/kg b.w., 0.5 h): 1/1

Compound: CCC(O)CNC(=O)COc1ccc(Cl)cc1C (stereo not shown) [Compound 81, R,S-1N-[(4-chlor-2-methylphenoxy)acetyl]amino-2-butanol]
MES, No. of protected animals/No. of used animals ([1]; dose 300 mg/kg b.w., 0.5 h): 1/1 | TOX, No. of animals exhibiting motor impairment/no. of used animals (neurotoxicity (rotarod); [9]): 4/4 | ScMet, No. of protected animals/No. of used animals ([2]; dose 300 mg/kg b.w., 0.5 h): 1/1

Compound: R,S-1N-[(2-chlor-6-methylphenoxy)ethyl]amino-2-propanol [Compound 23]
MES, No. of protected animals/No. of used animals ([1]; dose 30 mg/kg b.w., time 0.5 h): 1/1 | MES, No. of protected animals/No. of used animals [1, 10]: 1/1 | TOX, No. of animals exhibiting motor impairment/no. of used animals (neurotoxicity (rotarod); [3]): 7/8 | TOX, No. of animals exhibiting motor impairment/no. of used animals (neurotoxicity (rotarod); [5]): 4/4

Compound: R,S-1N-[(4-chlor-2-methylphenoxy)ethyl]amino-2-propanol [Compound 32]
MES, No. of protected animals/No. of used animals ([1]; dose 30 mg/kg b.w., time 0.5 h): 1/1 | MES, No. of protected animals/No. of used animals [1, 10]: 3/3 | MES, No. of protected animals/No. of used animals ([1]; dose 100 mg/kg b.w., time 4 h): 1/3 | MES, No. of protected animals/No. of used animals ([1]; dose 300 mg/kg b.w., time 0.5 h): 1/1 | TOX, No. of animals exhibiting motor impairment/no. of used animals (neurotoxicity (rotarod); [3]): 7/8 | TOX, No. of animals exhibiting motor impairment/no. of used animals (neurotoxicity (rotarod); [5]): 4/4 | TOX, No. of animals exhibiting motor impairment/no. of used animals (neurotoxicity (rotarod); mice, dose 300 mg/kg b.w., time 4 h): 1/1

Compound: R,S-2N-[(2,3-dimethylphenoxy)ethyl]amino-1-propanol [Compound 1]
MES, No. of protected animals/No. of used animals [1, 10]: 3/3 | TOX, No. of animals exhibiting motor impairment/no. of used animals (neurotoxicity (rotarod); mouse, in vivo, 100 mg/kg): 7/8 | TOX, No. of animals exhibiting motor impairment/no. of used animals (neurotoxicity (rotarod); mouse, in vivo, 300 mg/kg): 4/4

Compound: R,S-2N-[(4-chlor-2-methylphenoxy)ethyl]amino-1-propanol [Compound 33]
MES, No. of protected animals/No. of used animals [1, 10]: 3/3 | TOX, No. of animals exhibiting motor impairment/no. of used animals (neurotoxicity (rotarod); [3]): 4/8 | TOX, No. of animals exhibiting motor impairment/no. of used animals (neurotoxicity (rotarod); [5]): 4/4

Compound: R-(+)-2N-[(2,6-dimethylphenoxy)acetyl]amino-1-propanol [Compound 61]
MES, No. of protected animals/No. of used animals ([1]; dose 300 mg/kg b.w., 0.5 h): 1/1 | TOX, No. of animals exhibiting motor impairment/no. of used animals (neurotoxicity (rotarod); [9]): 2/4
